Experimental data published in patent US10344002B2, “Compositions and methods for treating metabolic disorders” (NuSirt Sciences, Inc., priority 2016, dated 2019).

Experiments:
C2C12 muscle cells [1] = conditions: same system, metformin alone; cited from earlier work
HepG2 liver cells [2] = conditions: same system, metformin alone; cited from earlier work
HepG2 liver cells [3] = experiment: Lipid accumulation (Oil Red Staining) in HepG2 liver cells induced with high glucose plus insulin; type: cell-based; conditions: same system
Procedure: Cell Culture: HepG2 liver cells were seeded with 80,000 cells per well on 24-well tissue culture plates in low glucose (5 mM) DMEM containing 10% FBS and antibiotics. After 24 hours of attachment, lipid accumulation was induced by incubating cells with high glucose (25 mM) DMEM (10% FBS, 1% Pen-Strep) plus 100 nM insulin for 48 hours. Cells were then treated with indicated concentrations of Compound 2 for an additional 48 hours.
(§1) Compound 2 was dissolved in 100% DMSO to a stock concentration of 100 mM. This stock was further diluted to indicated concentrations in DMEM media.
Lipid accumulation (Oil Red Staining): HepG2 liver cells were seeded and treated as described above. After 48 hours of treatment with Compound 2, lipid accumulation in HepG2 was measured via Oil Red Staining. Cells were washed with phosphate buffered saline (PBS) once, then cells were fixated with 10% formalin for 1 hour. After removal of the formalin, cells were washed with ddH2O twice, then washed with 60% isopropanol. Cells were dried completely. Cells were stained with Oil Red working solution (˜5 mM) for 25 minutes, then immediately washed with ddH2O four times, then dried completely again. Oil Red dye was eluted with 100% isopropanol and absorbance was read at 500 nm. Unstained cells plus isopropanol was used as a blank and subtracted from all readings. Data are represented as mean±SEM for each treatment group.

C2C12 muscle cells [4] = experiment: Fatty acid oxidation (oxygen consumption rate, Seahorse XF-24) in C2C12 muscle cells; type: cell-based; conditions: same system
Procedure: Cell Culture: C2C12 muscle cells were seeded with 40,000 cells per well on Seahorse tissue culture plates in Dulbecco's modified eagle's medium (DMEM) containing 10% fetal bovine serum (FBS) and antibiotics (1% penicillin-streptomycin) at 37° C. in 5% CO2. After reaching confluency (24 hours), cells were induced to differentiate with DMEM containing 2% Horse Serum for 3 to 4 days until myotubes were fully formed. Cells were then treated with indicated concentration of Compound 2 for 24 hours.
as §1
Fatty acid oxidation: Baseline and palmitate-stimulated oxygen consumption rates were measured with XF-24 analyzer (Seahorse Bioscience (now part of Agilent Technologies), MA, USA). After 24 hour treatment with Compound 2 of differentiated C2C12 muscle cells, cells were washed twice with non-buffered carbonate-free pH 7.4 low glucose (2.5 mM) DMEM containing carnitine (0.5 mM), equilibrated with 600 μl of the same media in a non-CO2 incubator for 45 minutes, and then inserted into the instrument for 15 minutes of further equilibration, followed by O2 consumption measurement. Three successive baseline measures at five-minute intervals were taken prior to injection of palmitate (200 μM final concentration). Sets of three five-minute intervals followed by 10-minute time delay were continued over a 2 to 3 hour period after palmitate injection. The area under the curve of 02 consumption change from baseline for each sample was then calculated and used for subsequent analysis. Data are represented as mean±SD for each treatment group.

CN(C)C(=N)NC(=N)N [metformin, Metformin, reference compound]
concentration below which fat oxidation is not stimulated (C2C12 muscle cells [1]): ≥ 1 mM
concentration below which hepatic lipids are not reduced (HepG2 liver cells [2]): ≥ 1 mM
fold higher concentration (in comparison with Compound 2) for reducing hepatic lipids (HepG2 liver cells [3]): 100,000 fold
fold higher concentration (in comparison with Compound 2) for fat oxidation (C2C12 muscle cells [4]): 100,000 fold
